Data taken from paper PMC12833730, “Discovery of a First‐in‐Class Covalent Allosteric SHP1 Inhibitor with Immunotherapeutic Activity” (Angewandte Chemie (International Ed. in English), 2025).
“Also recorded” adds a separate entry of the source.

Experiments:
[1] = tested on: whole proteome in Jurkat T cells; test: Chemoproteomic maleimide-biotin competition; assay type: cell-based, human
Procedure: To further define the selectivity of M029 for SHP1 and assess its cellular target engagement, a chemoproteomic investigation was performed to identify Cys residues protected by M029 from biotin‐tagged maleimide from the whole proteome in Jurkat T cells.^[ [79] ^] Since proteins labeled by M029 will be prevented from capture by the maleimide‐biotin probe, M029‐modified proteins can be readily identified by determining the ratio between the maleimide‐biotin‐bound proteins in the absence and presence of M029. […] The modest observed off‐target reactivity of M029 is not uncommon for targeted covalent inhibitors, including those FDA‐approved covalent drugs targeting EGFR (Osimertinib),^[ [80], [81] ^] BTK (Ibrutinib),^[ [82] ^] and KRAS (Sotorasib),^[ [83] ^] which also modify other proteins in addition to the intended targets. […]
For chemical proteomics studies, Cells were placed in 1 mL urea lysis buffer (100 mM Tris-HCl, pH 8, 8 M urea) and sonicated on ice for three 1-min rounds at 15% amplitude. […] Total protein concentrations were determined using the bicinchoninic acid (BCA) protein assay kit (Thermo Scientific Pierce, Rockford, IL). […]
Mal-biotin labeled peptides were diluted in 1 mL of PBS with 50 μL of High-Capacity NeutrAvidin slurry (Thermo Scientific). […] The peptide samples were analyzed by using an Evosep One LC coupled to a timsTOF HT mass spectrometer (Bruker). […]

[2] = tested on: MC38 colorectal tumors; test: MC38 syngeneic tumor model; assay type: in vivo, C57BL/6 mice
Procedure: Given its favorable PK profiles, we evaluated the antitumor activity of M029 in C57BL/6 mice bearing MC38 colorectal tumors. Mice bearing established tumors were given once daily with either saline, 25 mg/kg (IP), 25 mg/kg (PO), or 100 mg/kg (PO) M029.
Figure 5 M029 inhibits syngeneic MC38 tumor growth by promoting infiltration and activation of both T cells and NK cells in the tumor microenvironment. […] This T cell activation was further supported by i) the increased effector CD8^+ population in the tumor microenvironment. […] Statistical analyses were performed with Graphpad Prism software 10.4.2 through the student t test or the one‐way ANOVA test using Turkey post‐hoc comparison. *p < 0.05, **p < 0.01, ***p < 0.001, and ****p < 0.0001 were considered significant. Figures are plotted as average ± standard error of the mean (SEM).
All the in vivo studies were performed under an animal protocol (1511001324) approved by the Institutional Animal Care & Use Committee of Purdue University, in accordance with the recommendations in the Guide for the Care and Use of Laboratory Animals of the National Institutes of Health. For PK study, C57BL6 female mice (25-30g body weight) were injected intraperitoneally, orally, or intravenously with 25 mg/kg M029 dissolved in 0.4 ml saline. Blood samples were collected through the tail vein at the indicated time points after injection. Isoflurane was used as an anesthetic. All blood samples were centrifuged at 1,500 g for 5 minutes, and plasma was separated and stored at –80°C until analysis by a validated method based on reversed-phase liquid chromatography coupled to mass-spectrometric detection (LC/MS) using a previously published procedure.^169 For the MC38 syngeneic tumor study, 12-week-old C57BL6 female mice were injected subcutaneously with […] MC38 cells in the right and left flanks for tumor growth. When tumors reached an average volume of 100 mm^3 mice were tumor size-matched and randomly assigned to different experimental groups for experiments. Four mice with eight tumors were used in each treatment group. Mice were injected orally with saline or 25 or 100 mg/kg M029 daily. Tumor sizes and animal weights were measured twice per week. Tumor volume (mm^3) = (length X width^2)/2. At the end of the experiments, mice were euthanized, and tumors were collected for analysis. Among eight tumors collected from each group, four homogenous samples and […] were prepared for Western blots and histology analysis.

Compound: N#Cc1ccsc1NS(=O)(=O)c1ccc(NC(=O)CCl)cc1 [M029, 2-Chloro-N-(4-(N-(3-cyanothiophen-2-yl)sulfamoyl)phenyl)acetamide]
- rank of SHP1 (Cys480) among M029-labeled proteins ([1]; >2700 peptide fragments identified): second most
- number of proteins significantly blocked from maleimide modification ([1]; cutoff 10-fold, p 0.05): five
- body weight ([2]; 25 or 100 mg/kg oral): no significant changes
- tumor volume and tumor weight ([2]; 25 or 100 mg/kg oral vs vehicle): significant decreases
- kidney and liver tissue sections ([2]; IP dosing, Figure S5): No significant lesion or tissue changes
- MC38 tumor progression, 25 mg/kg IP ([2]; once daily IP injection 25 mg/kg): effectively halted tumor progression
- MC38 tumor progression, 25 mg/kg PO ([2]; once daily oral gavage 25 mg/kg, 25 mg/kg): effectively halted tumor progression; also recorded: significantly delayed
- MC38 tumor progression, 100 mg/kg PO ([2]; once daily oral gavage 100 mg/kg, 100 mg/kg): effectively halted tumor progression; also recorded: significantly delayed
- signs of toxicity ([2]; up to 100 mg/kg, body weight and organ histology): no obvious signs of toxicity
